Test results taken from article PMC11417357, “The SAVED domain of the type III CRISPR protease CalpL is a ring nuclease” (Nucleic Acids Research, 2024).
Residue numbers refer to the chain shown, from its start. pKd: −log10 of the molar value. Like-named read-outs stand apart in the source and are kept apart here.

How the values were obtained:
Test in all cases: SPR, single-cycle kinetics, […] model, CalpL amine-coupled to CM5 chip
Type in all cases: binding
Conditions in all cases: 20 mM Tris pH 8, 50 mM NaCl, 0.05% Tween20, 25 °C
CalpL [1] = target: T1, CalpL (Sulfurihydrogenibium sp. YO3AOP1, UniProt Z9OF32SUC9)
T1 construct: codon-optimized CalpL, Lon protease domain plus C-terminal SAVED domain; N-terminal 10xHis-TEV tag removed by TEV protease; expressed in E. coli BL21(DE3); monomer that oligomerizes with cA4
T1 sequence (Z9OF32SUC9 2-496): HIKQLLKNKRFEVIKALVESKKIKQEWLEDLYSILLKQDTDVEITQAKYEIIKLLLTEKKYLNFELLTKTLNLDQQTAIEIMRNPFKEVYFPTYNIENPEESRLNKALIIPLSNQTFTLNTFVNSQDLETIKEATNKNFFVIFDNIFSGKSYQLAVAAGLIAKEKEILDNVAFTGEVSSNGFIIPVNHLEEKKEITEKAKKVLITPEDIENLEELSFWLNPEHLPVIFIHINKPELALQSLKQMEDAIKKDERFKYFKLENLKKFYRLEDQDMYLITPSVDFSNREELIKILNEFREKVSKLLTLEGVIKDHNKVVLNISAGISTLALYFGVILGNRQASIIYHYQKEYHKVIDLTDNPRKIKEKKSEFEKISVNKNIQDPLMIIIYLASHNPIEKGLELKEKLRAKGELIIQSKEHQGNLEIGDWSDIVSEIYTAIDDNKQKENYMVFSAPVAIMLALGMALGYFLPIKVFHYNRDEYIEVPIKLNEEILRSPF

CalpL [2] = target: T1, CalpL; remark: listed apart in the source
CalpL [3] = target: T2, CalpL (Sulfurihydrogenibium sp. YO3AOP1, UniProt Z9OF32SUC9, H474A)
T2 construct: codon-optimized CalpL, Lon protease domain plus C-terminal SAVED domain; N-terminal 10xHis-TEV tag removed by TEV protease; expressed in E. coli BL21(DE3); monomer that oligomerizes with cA4
T2 sequence (Z9OF32SUC9 2-496 H474A): T1 sequence (Z9OF32SUC9 2-496) with H473A

CalpL [4] = target: T3, CalpL (Sulfurihydrogenibium sp. YO3AOP1, UniProt Z9OF32SUC9, H345A)
T3 construct: codon-optimized CalpL, Lon protease domain plus C-terminal SAVED domain; N-terminal 10xHis-TEV tag removed by TEV protease; expressed in E. coli BL21(DE3); monomer that oligomerizes with cA4
T3 sequence (Z9OF32SUC9 2-496 H345A): T1 sequence (Z9OF32SUC9 2-496) with H344A

CalpL [5] = target: T4, CalpL (Sulfurihydrogenibium sp. YO3AOP1, UniProt Z9OF32SUC9, H392A)
T4 construct: codon-optimized CalpL, Lon protease domain plus C-terminal SAVED domain; N-terminal 10xHis-TEV tag removed by TEV protease; expressed in E. coli BL21(DE3); monomer that oligomerizes with cA4
T4 sequence (Z9OF32SUC9 2-496 H392A): T1 sequence (Z9OF32SUC9 2-496) with H391A

CalpL [6] = target: T5, CalpL (Sulfurihydrogenibium sp. YO3AOP1, UniProt Z9OF32SUC9, R361E)
T5 construct: codon-optimized CalpL, Lon protease domain plus C-terminal SAVED domain; N-terminal 10xHis-TEV tag removed by TEV protease; expressed in E. coli BL21(DE3); monomer that oligomerizes with cA4
T5 sequence (Z9OF32SUC9 2-496 R361E): T1 sequence (Z9OF32SUC9 2-496) with R360E

CalpL [7] = target: T6, CalpL (Sulfurihydrogenibium sp. YO3AOP1, UniProt Z9OF32SUC9, R361A)
T6 construct: codon-optimized CalpL, Lon protease domain plus C-terminal SAVED domain; N-terminal 10xHis-TEV tag removed by TEV protease; expressed in E. coli BL21(DE3); monomer that oligomerizes with cA4
T6 sequence (Z9OF32SUC9 2-496 R361A): T1 sequence (Z9OF32SUC9 2-496) with R360A

SMILES	pKd (CalpL [3])	pKd (CalpL [4])	pKd (CalpL [5])	also measured
Nc1ncnc2c1ncn2[C@@H]1O[C@H](COP(=O)(O)O[C@H]2[C@@H](O)[C@H](n3cnc4c(N)ncnc43)O[C@@H]2CO)[C@@H](OP(=O)(O)O)[C@H]1O [A2]				KD (CalpL [1]): decrease in affinity of CalpL towards A4 and A2 compared to cA4
Nc1ncnc2c1ncn2[C@@H]1O[C@@H]2COP(=O)(O)O[C@H]3[C@@H](F)[C@H](n4cnc5c(N)ncnc54)O[C@@H]3COP(=O)(O)O[C@H]3[C@@H](F)[C@H](n4cnc5c(N)ncnc54)O[C@@H]3COP(=O)(O)O[C@H]3[C@@H](F)[C@H](n4cnc5c(N)ncnc54)O[C@@H]3COP(=O)(O)O[C@H]2[C@H]1F [2′F-cA4]	9.65	7.72		pKd (CalpL [2]; non-hydrolysable analogue, read-out: KD): 9.00
Nc1ncnc2c1ncn2[C@@H]1O[C@H](COP(=O)(O)O[C@H]2[C@@H](O)[C@H](n3cnc4c(N)ncnc43)O[C@@H]2COP(=O)(O)O[C@H]2[C@@H](O)[C@H](n3cnc4c(N)ncnc43)O[C@@H]2COP(=O)(O)O[C@H]2[C@@H](O)[C@H](n3cnc4c(N)ncnc43)O[C@@H]2CO)[C@@H](OP(=O)(O)O)[C@H]1O [A4]			8.76	pKd (CalpL [2]; apparent, read-out: apparent KD): 6.80
Nc1ncnc2c1ncn2[C@@H]1O[C@@H]2COP(=O)(O)O[C@H]3[C@@H](O)[C@H](n4cnc5c(N)ncnc54)O[C@@H]3COP(=O)(O)O[C@H]3[C@@H](O)[C@H](n4cnc5c(N)ncnc54)O[C@@H]3COP(=O)(O)O[C@H]3[C@@H](O)[C@H](n4cnc5c(N)ncnc54)O[C@@H]3COP(=O)(O)O[C@H]2[C@H]1O [cA4]	7.31	7.16	10.51	pKd (CalpL [6]): 9.00; pKd (CalpL [2]; apparent: ligand cleaved on the chip, depends on immobilization density, read-out: apparent KD): 7.30; pKd (CalpL [7]): 9.06
